Experimental findings from patent US7713965B2, “7-substituted 3-carboxy-oxadiazino-quinolone derivatives, their preparation and their application as anti-bacterials” (Vetoquinol SA, priority 2008, dated 2010) are described below.

≈ marks a conversion by molar mass, not a printed value.

Holding throughout (type): cell-based
Experiment [1] has as its system Mannheimia haemolytica (r = resistant). In words: MIC determination by microdilution in liquid medium, Man hae r. The settings on record: resistant strain. On the technique in general: Broth dilution looks for growth in wells or tubes with falling amounts of substance.
For another experiment, the system named is Clostridium perfringens. The experiment in a line: microbe, parasite or virus in culture. The settings on record: read-out: MIC Clo per.
Experiment [2] deals with Staphylococcus aureus (r = resistant). The experiment in a line: MIC determination by microdilution in liquid medium, Sta aur r. The settings on record: read-out: MIC Sta aur r.
Experiment [3] deals with Staphylococcus aureus (s = susceptible). In words: MIC determination by microdilution in liquid medium, Sta aur s. The settings on record: susceptible strain.
Experiment [4] relates to Bordetella bronchiseptica. The experiment in a line: MIC determination by microdilution in liquid medium, Bor bron.
A further experiment relates to E. faecalis ATCC 29212. The experiment in a line: MIC determination by microdilution in liquid medium, E. faecalis ATCC 29212. The settings on record: Enterococcus faecalis, ATCC29212, read-out: MIC E. fae-calis ATCC 29212.
For another experiment, the system named is E. coli ATCC 25922. In words: MIC determination by microdilution in liquid medium, E. coli ATCC 25922. The settings on record: Escherichia coli, ATCC25922.
The subject of experiment [5] is Mannheimia haemolytica (s = susceptible). In words: MIC determination by microdilution in liquid medium, Man hae s. The settings on record: susceptible strain.
The test system of another experiment is M. bovirhinis. In words: MIC determination by microdilution in liquid medium, M. bovirhinis. The settings on record: Mycoplasma.
For a further experiment, the system named is Streptococcus uberis. The experiment in a line: MIC determination by microdilution in liquid medium, Str ube.
A further experiment concerns Escherichia coli. In words: MIC determination by microdilution in liquid medium, E coli.
In experiment [6] the test system is Pseudomonas aeruginosa (r = resistant). The experiment in a line: MIC determination by microdilution in liquid medium, Pse aer r. The settings on record: read-out: MIC Pse aer r.
Experiment [7] deals with Pseudomonas aeruginosa (s = susceptible). In words: MIC determination by microdilution in liquid medium, Pse aer s. The settings on record: susceptible strain.
A further experiment relates to Mycoplasma bovis. The experiment in a line: MIC determination by microdilution in liquid medium, Myc bov. The settings on record: Mycoplasmopsis bovis.

On to `CN1COc2c(N3CC[C@H](Nc4nccs4)C3)c(F)cc3c(=O)c(C(=O)O)cn1c23` [Example 18, 8-Fluoro-3-methyl-6-oxo-9-[(S)-3-(thiazol-2-ylamino)-pyrrolidin-1-yl]-2,3dihydro-6H-1-oxa-3,3a-diaza-phenalene-5-carboxylic acid], for which the MIC in experiment [1] was greater than 32 µg/mL; in the experiment with Clostridium perfringens, 0.06 µg/mL (≈ 0.139 µM); in [2] it was 4 µg/mL (≈ 9.27 µM); in experiment [3] it was less than 0.03 µg/mL; in experiment [4] it was 0.25 µg/mL (≈ 0.579 µM); in the experiment on E. faecalis ATCC 29212, no more than 0.03 µg/mL. In addition, the MIC with E. coli ATCC 25922 was 0.06 µg/mL (≈ 0.139 µM); in experiment [5], 0.12 µg/mL (≈ 0.278 µM); with M. bovirhinis, no more than 0.03 µg/mL; against Streptococcus uberis, 0.25 µg/mL (≈ 0.579 µM); against Escherichia coli, 0.5 µg/mL (≈ 1.16 µM); in experiment [6], 32 µg/mL (≈ 74.2 µM). The MIC stood at 4 µg/mL (≈ 9.27 µM) in [7] and 0.25 µg/mL (≈ 0.579 µM) in the experiment on Mycoplasma bovis.

For `CN1COc2c(N3CC[C@@H](Nc4nccs4)C3)c(F)cc3c(=O)c(C(=O)O)cn1c23` [Example 19, 8-Fluoro-3-methyl-6-oxo-9-[(R)-3-(thiazol-2-ylamino)-pyrrolidin-1-yl]-2,3-dihydro-6H-1-oxa-3,3a-diaza-phenalene-5-carboxylic acid], the MIC in experiment [1] was 8 µg/mL (≈ 18.5 µM); in the experiment on Clostridium perfringens, less than 0.03 µg/mL; in experiment [2], 0.25 µg/mL (≈ 0.579 µM); in experiment [3] it was less than 0.03 µg/mL; in experiment [4] it was 0.12 µg/mL (≈ 0.278 µM); in the experiment on E. faecalis ATCC 29212, 0.06 µg/mL (≈ 0.139 µM). Besides, the MIC with E. coli ATCC 25922 is 0.25 µg/mL (≈ 0.579 µM); in experiment [5] it was 0.03 µg/mL (≈ 0.0695 µM); with M. bovirhinis, 0.25 µg/mL (≈ 0.579 µM); against Streptococcus uberis it was less than 0.03 µg/mL; against Escherichia coli it was 0.06 µg/mL (≈ 0.139 µM); in experiment [6], 8 µg/mL (≈ 18.5 µM). Further, the MIC in [7] was 2 µg/mL (≈ 4.64 µM); against Mycoplasma bovis it was less than 0.03 µg/mL.

For the compound `CN1COc2c(N3CCC(NC(=O)C(F)(F)F)C3)c(F)cc3c(=O)c(C(=O)O)cn1c23` (centres unmarked) [Example 27, 8-Fluoro-3-methyl-6-oxo-9-[3-(2,2,2-trifluoro-acetylamino)-pyrrolidin-1-yl]-2,3-dihydro-6H-1-oxa-3,3a-diaza-phenalene-5-carboxylic acid], the MIC was found to be 4 µg/mL (≈ 9 µM) in experiment [1]; 0.25 µg/mL (≈ 0.563 µM) in the experiment on Clostridium perfringens; 8 µg/mL (≈ 18 µM) in [2]; 0.12 µg/mL (≈ 0.27 µM) in [3]; 2 µg/mL (≈ 4.5 µM) in experiment [4]; 2 µg/mL (≈ 4.5 µM) with E. faecalis ATCC 29212. The MIC worked out at 0.03 µg/mL (≈ 0.0675 µM) in the experiment on E. coli ATCC 25922; 0.008 µg/mL (≈ 0.018 µM) in experiment [5]; 1 µg/mL (≈ 2.25 µM) against M. bovirhinis; 0.25 µg/mL (≈ 0.563 µM) against Streptococcus uberis; 0.03 µg/mL (≈ 0.0675 µM) in the experiment with Escherichia coli; 2 µg/mL (≈ 4.5 µM) in experiment [6]. Besides, the results for the MIC (in experiment [7]; against Mycoplasma bovis) were 0.06 µg/mL (≈ 0.135 µM) and 1 µg/mL (≈ 2.25 µM), respectively.

For `CN1COc2c(N3CC[C@@H](NC(=O)C(F)(F)F)C3)c(F)cc3c(=O)c(C(=O)O)cn1c23` [Example 29, 8-Fluoro-3-methyl-6-oxo-9-[(R)-3-(2,2,2-trifluoro-acetylamino)-pyrrolidin-1-yl]-2,3-dihydro-6H-1-oxa-3,3a-diaza-phenalene-5-carboxylic acid], the MIC in experiment [1] is 8 µg/mL (≈ 18 µM); with Clostridium perfringens, 0.25 µg/mL (≈ 0.563 µM); in [2], 8 µg/mL (≈ 18 µM); in experiment [3], 0.12 µg/mL (≈ 0.27 µM); in [4] it was greater than 1 µg/mL; in the experiment on E. faecalis ATCC 29212 it was 1 to 2 µg/mL (≈ 2.25 to 4.5 µM). Also, the MIC was found to be 0.06 µg/mL (≈ 0.135 µM) in the experiment with E. coli ATCC 25922; 0.03 µg/mL (≈ 0.0675 µM) in experiment [5]; 1 µg/mL (≈ 2.25 µM) against M. bovirhinis; 0.5 µg/mL (≈ 1.13 µM) against Streptococcus uberis; 0.06 µg/mL (≈ 0.135 µM) against Escherichia coli; 4 µg/mL (≈ 9 µM) in [6]. The results for the MIC (in experiment [7]; against Mycoplasma bovis) were 0.25 µg/mL (≈ 0.563 µM) and 0.5 µg/mL (≈ 1.13 µM), respectively.

As for `CN1COc2c(N3C[C@@H](N)C(C)(C)C3)c(F)cc3c(=O)c(C(=O)O)cn1c23` [Example 34, 9-((S)-4-Amino-3,3-dimethyl-pyrrolidin-1-yl)-8-fluoro-3-methyl-6-oxo-2,3-dihydro-6H-1-oxa-3,3a-diaza-phenalene-5-carboxylic acid], the MIC in experiment [1] is 8 µg/mL (≈ 21.3 µM); in the experiment on Clostridium perfringens, less than 0.03 µg/mL; in experiment [2], 2 µg/mL (≈ 5.31 µM); in [3], less than 0.03 µg/mL; in experiment [4], 0.5 µg/mL (≈ 1.33 µM); in the experiment on E. faecalis ATCC 29212, 0.25 to 0.5 µg/mL (≈ 0.664 to 1.33 µM). Moreover, the MIC in the experiment on E. coli ATCC 25922 was 0.03 µg/mL (≈ 0.0797 µM); in experiment [5], 0.03 µg/mL (≈ 0.0797 µM); against M. bovirhinis it was 0.12 µg/mL (≈ 0.319 µM); in the experiment on Streptococcus uberis, 0.12 µg/mL (≈ 0.319 µM); against Escherichia coli, 0.03 µg/mL (≈ 0.0797 µM); in [6], 8 µg/mL (≈ 21.3 µM). Besides, the MIC (in experiment [7]; with Mycoplasma bovis) was 0.5 µg/mL (≈ 1.33 µM) throughout.

In the case of `CN1COc2c(N3CCC(C(O)c4nccs4)C3)c(F)cc3c(=O)c(C(=O)O)cn1c23` (centres unmarked) [Example 38, 8-Fluoro-9-[3-(hydroxy-thiazol-2-yl-methyl)-pyrrolidin-1-yl]-3-methyl-6-oxo-2,3-dihydro-6H-1-oxa-3,3a-diaza-phenalene-5-carboxylic acid], the MIC in experiment [1] is 16 µg/mL (≈ 35.8 µM); in the experiment with Clostridium perfringens, less than 0.03 µg/mL; in experiment [2], 2 µg/mL (≈ 4.48 µM); in experiment [3], 0.06 µg/mL (≈ 0.134 µM); in experiment [4] it was 1 µg/mL (≈ 2.24 µM); in the experiment with E. faecalis ATCC 29212, 0.06 µg/mL (≈ 0.134 µM). In addition, the MIC in the experiment on E. coli ATCC 25922 was 0.12 µg/mL (≈ 0.269 µM); in [5], 0.03 µg/mL (≈ 0.0672 µM); against M. bovirhinis, 0.25 µg/mL (≈ 0.56 µM); in the experiment on Streptococcus uberis, less than 0.03 µg/mL; against Escherichia coli, 0.12 µg/mL (≈ 0.269 µM); in experiment [6], 32 µg/mL (≈ 71.7 µM). The MIC in [7] stood at 4 µg/mL (≈ 8.96 µM); in the experiment with Mycoplasma bovis it was 0.12 µg/mL (≈ 0.269 µM).

For `CN1COc2c(N3CCC(C(N)c4nccs4)C3)c(F)cc3c(=O)c(C(=O)O)cn1c23` (centres unmarked) [Example 39, 9-[3-(Amino-thiazol-2-yl-methyl)-pyrrolidin-1-yl]-8-fluoro-3-methyl-6-oxo-2,3-dihydro-6H-1-oxa-3,3a-diaza-phenalene-5-carboxylic acid], the MIC in experiment [1] was 16 µg/mL (≈ 35.9 µM); in the experiment on Clostridium perfringens, no more than 0.03 µg/mL; in [2], 2 µg/mL (≈ 4.49 µM); in experiment [3], no more than 0.03 µg/mL; in experiment [4], 0.5 µg/mL (≈ 1.12 µM); in the experiment on E. faecalis ATCC 29212, 0.12 µg/mL (≈ 0.269 µM). Further, the MIC in the experiment on E. coli ATCC 25922 was 0.03 to 0.12 µg/mL (≈ 0.0673 to 0.269 µM); in [5] it was 0.03 µg/mL (≈ 0.0673 µM); against M. bovirhinis, 0.06 µg/mL (≈ 0.135 µM); in the experiment on Streptococcus uberis, 0.12 µg/mL (≈ 0.269 µM); in the experiment with Escherichia coli, 0.25 µg/mL (≈ 0.561 µM); in experiment [6], 16 µg/mL (≈ 35.9 µM). Besides, the MIC is 2 µg/mL (≈ 4.49 µM) in experiment [7] and 0.12 µg/mL (≈ 0.269 µM) against Mycoplasma bovis.
